According to patent US20260234268A1, “ANTI-ASGR1 MONOCLONAL ANTIBODY AND USE THEREOF” (CHOLESGEN (SHANGHAI) CO., LTD., priority 2022, published 2026):

Assays:
[1] = test system: mice fed a high-fat, high-cholesterol, and cholate (HF/HC/BS) diet; assay: 4B9 and atorvastatin, alone or combined, in mice fed HF/HC/BS diet, 14 days (Example 2, FIG. 3); conditions: 4B9 10 mg/kg/day i.p. every other day
Experimental: 8-week-old Asgr1 knockout mice and wild-type littermates are randomly divided into 8 groups as shown in the figure according to the genotype, with 6 mice per group. The mice are given free access to water and fed a high-fat, high-cholesterol, and cholate (HF/HC/BS) diet (60% fat, 1.25% cholesterol, and 0.5% cholate). […] After 14 days, the mice are fasted for 4 hours before being sacrificed. All data are presented as mean±SEM. Statistical significance is calculated using an unpaired two-tailed Student's t-test. *p<0.05, **p<0.01, ***p<0.001. (a) Western blotting analysis of liver samples; (b) total cholesterol in serum; (c) triglyceride in serum; (d) total cholesterol in liver; (e) triglyceride in liver; (f) concentration of cholesterol in bile; (g) total cholesterol in bile; (h) concentration of bile acid in bile; (i) total bile acid in bile; (j) total cholesterol in feces; (k) body weight; (l) daily food intake; (m) ratio of liver weight to body weight; (n) blood glucose; (o) alanine transaminase in serum; (p) aspartate transaminase in serum; (q-r) real-time quantitative PCR analysis of genes related to cholesterol efflux, cholesterol synthesis and absorption, lipid synthesis, and bile acid synthesis in the liver of mice, and genes in other pathways, with cyclophilin as an internal reference; (s) hematoxylin-eosin staining of liver sections; (t) oil red O staining of liver sections.
In the experiment, wild-type littermates were used as a control. All mice were housed in an SPF (specific pathogen-free) facility and kept on a 12-hour light/12-hour dark cycle. 8-week-old male or female mice were fed a high-fat, high-cholesterol, and cholate diet (Research Diets, D12109C) as required by the experimental protocols. For treatments involving antibody neutralization or the combination of antibodies with statins or Ezetimibe, the mice were intraperitoneally injected with antibodies or intragastrically administered with drugs at specified doses. All animals were fasted for 4 hours before being sacrificed.
The collected cells or tissues were lysed in RIPA lysis buffer supplemented with protease and phosphatase inhibitors. The RIPA lysis buffer contained 50 mM Tris-HCl (pH=8.0), 150 mM NaCl, 2 mM MgCl2, 1.5% NP-40, 0.1% SDS, and 0.5% sodium deoxycholate. The protease inhibitor contained 10 μM MG-132, 10 μg/mL leupeptin, 1 mM PMSF, 5 μg/mL pepstatin, 25 μg/mL ALLN, and 1 mM DTT. The protein concentration of the lysate was determined using a BCA method (Thermo Fisher Scientific). The protein samples were incubated with membrane solubilization buffer (62.5 mM Tris-HCl (pH=6.8), 15% SDS, 8 M urea, 10% glycerol, and 100 mM DTT) and 4× loading buffer (150 mM Tris-HCl (pH=6.8), 12% SDS, 30% glycerol, 6% β-mercaptoethanol, and 0.02% bromophenol blue) at 37° C. for 30 minutes. The protein samples were separated by SDS-PAGE and transferred to a PVDF membrane, which was blocked in TBST, i.e., TBS containing 0.075% Tween 20 and 5% skim milk (3% BSA for phosphorylation experiments) for 1 hour. The membrane was incubated overnight at 4° C. with a specified primary antibody, and washed three times with TBST. Finally, Pierce ECL Plus Western blotting substrate (Thermo Fisher Scientific) was used for detection.
Blood was collected from the orbital sinus to obtain serum for the measurement of total cholesterol and triglyceride.

[2] = test system: mice fed a high-fat, high-cholesterol, and cholate (HF/HC/BS) diet; assay: 4B9 and Ezetimibe, alone or combined, in mice fed HF/HC/BS diet (Example 3, FIG. 4); format: in vivo, mouse; conditions: sacrificed on day 7, 4B9 10 mg/kg i.p. every other day
Experimental: All data are presented as mean±SEM.
We then devised an experiment as in FIG. 4 to verify the hypothesis. Mice were randomly divided into 8 groups according to the genotype (n=6) and fed an HF/HC/BS diet. They were intragastrically administered with EZ at 10 mg/kg per day and were intraperitoneally injected with 4B9 at 10 mg/kg every other day. The mice were sacrificed on day 7 to collect their tissues.

[3] = Ezetimibe used alone, clinical; cited from earlier work
[4] = EZ 10 mg/kg per day intragastric (FIGS. 4a, 4p-q)

CC(C)c1c(C(=O)Nc2ccccc2)c(-c2ccccc2)c(-c2ccc(F)cc2)n1CC[C@@H](O)C[C@@H](O)CC(=O)O [atorvastatin]
total cholesterol in serum ([1]; atorvastatin 30 mg/kg/day intragastric daily (FIG. 3b)): effectively reduce
triglyceride in serum ([1]; atorvastatin 30 mg/kg/day intragastric daily (FIG. 3c)): effectively reduce
triglyceride in liver ([1]; atorvastatin 30 mg/kg/day intragastric daily (FIG. 3e)): effectively reduce
total amount of total cholesterol in bile ([1]; atorvastatin 30 mg/kg/day intragastric daily (FIG. 3g)): almost no effect
total cholesterol in feces ([1]; atorvastatin 30 mg/kg/day intragastric daily (FIG. 3j)): no effect
total cholesterol in liver ([1]; atorvastatin 30 mg/kg/day intragastric daily (FIG. 3d)): effectively reduce
body weight ([1]; 8 groups of mice, atorvastatin 30 mg/kg/day intragastric daily (FIG. 3k)): No significant differences
daily food intake ([1]; 8 groups of mice, atorvastatin 30 mg/kg/day intragastric daily (FIG. 3l)): No significant differences
blood glucose ([1]; 8 groups of mice, atorvastatin 30 mg/kg/day intragastric daily (FIG. 3n)): No significant differences
ALT ([1]; 8 groups of mice, atorvastatin 30 mg/kg/day intragastric daily (FIG. 3o)): No significant differences
AST ([1]; 8 groups of mice, atorvastatin 30 mg/kg/day intragastric daily (FIG. 3p)): No significant differences

O=C1[C@H](CC[C@H](O)c2ccc(F)cc2)[C@@H](c2ccc(O)cc2)N1c1ccc(F)cc1 [Ezetimibe, reference compound]
body weight ([2]; 8 groups of mice, EZ 10 mg/kg per day intragastric (FIG. 4j)): No significant differences
daily food intake ([2]; 8 groups of mice, EZ 10 mg/kg per day intragastric (FIG. 4k)): No significant differences
ratio of liver weight to body weight ([2]; 8 groups of mice, EZ 10 mg/kg per day intragastric (FIG. 4l)): No significant differences
blood glucose ([2]; 8 groups of mice, EZ 10 mg/kg per day intragastric (FIG. 4m)): No significant differences
ALT ([2]; 8 groups of mice, EZ 10 mg/kg per day intragastric (FIG. 4n)): No significant differences
AST ([2]; 8 groups of mice, EZ 10 mg/kg per day intragastric (FIG. 4o)): No significant differences
total cholesterol in serum ([2]; EZ 10 mg/kg per day intragastric (FIG. 4b)): effectively reduce
triglyceride in serum ([2]; EZ 10 mg/kg per day intragastric (FIG. 4c)): effectively reduce
triglyceride in liver ([2]; EZ 10 mg/kg per day intragastric (FIG. 4e)): effectively reduce
total amount of total cholesterol in bile ([2]; EZ 10 mg/kg per day intragastric (FIG. 4g)): significantly inhibited
total amount of total bile acid in bile ([2]; EZ 10 mg/kg per day intragastric (FIG. 4i)): significantly inhibited
total cholesterol in liver ([2]; EZ 10 mg/kg per day intragastric (FIG. 4d)): effectively reduce
cholesterol efflux-related genes and their proteins (LXRs, ABCG8, ABCA1, CYP7A1) in liver [2, 4]: significant decrease
lipid synthesis-related genes and their proteins (SREBP1, FASN) in liver [2, 4]: significant decrease
reduction of the plasma concentration of LDL-c [3]: about 20%
